According to ChEMBL document CHEMBL1201862, “PubChem BioAssay data set” (2004):
Active and inactive are the calls of the source.

Legend:
[1] = molecular target: Phosphorylase b kinase gamma catalytic chain, liver/testis isoform (Homo sapiens, UniProt P15735); format: functional;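 also: PHKG2 measured as one member of a kinome-wide kinase panel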
[2] = molecular target: ALK tyrosine kinase receptor (Homo sapiens, UniProt Q9UM73); format: functional;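 also: ALK tested as one member of a kinase panel screen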
[3] = molecular target: Calcium/calmodulin-dependent protein kinase type II subunit gamma (Homo sapiens, UniProt Q13555); format: functional
[4] = molecular target: Serine/threonine-protein kinase Chk2 (Homo sapiens, UniProt O96017); format: functional;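 also: CHEK2 entry within a kinome-wide screening panel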
[5] = molecular target: Casein kinase I isoform gamma-1 (Homo sapiens, UniProt Q9HCP0); format: functional;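 also: measured as the CSNK1G1 member of a kinome profiling panel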
[6] = molecular target: Mitogen-activated protein kinase 9 (Homo sapiens, UniProt P45984); format: functional;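 also: value from a kinome panel profiling assay, MAPK9 panel entry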
[7] = molecular target: Mitogen-activated protein kinase 13 (Homo sapiens, UniProt O15264); format: functional
[8] = molecular target: Serine/threonine-protein kinase pim-3 (Homo sapiens, UniProt Q86V86); format: functional;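 also: value obtained as one member of a broad kinase panel profiling effort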
[9] = molecular target: Non-receptor tyrosine-protein kinase TYK2 (Homo sapiens, UniProt P29597); format: functional
[10] = molecular target: Protein kinase C gamma type (Homo sapiens, UniProt P05129); format: functional
[11] = molecular target: Proto-oncogene tyrosine-protein kinase Src (Homo sapiens, UniProt P12931); format: functional;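 also: SRC entry within a kinome-wide kinase profiling panel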
[12] = molecular target: Glycogen synthase kinase-3 alpha (Homo sapiens, UniProt P49840); format: functional;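 also: GSK3A result taken from a broad kinome-wide kinase panel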
[13] = molecular target: Cyclin-dependent kinase 5 (Homo sapiens, UniProt Q00535); format: functional;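 also: CDK5 measured as one member of a kinase profiling panel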
Ephrin type-A receptor 2 = Ephrin type-A receptor 2 (Homo sapiens, UniProt P29317); format: functional;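 also: EPHA2 tested as one member of a kinome-wide kinase panel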
[14] = molecular target: Protein kinase C iota type (Homo sapiens, UniProt P41743); format: functional;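 also: measured within a kinome-wide kinase panel, PRKCI as panel member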
[15] = molecular target: Maternal embryonic leucine zipper kinase (Homo sapiens, UniProt Q14680); format: functional
[16] = molecular target: RAC-alpha serine/threonine-protein kinase (Homo sapiens, UniProt P31749); format: functional;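 also: AKT1 affinity measured as one member of a kinome-wide kinase profiling panel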
[17] = molecular target: Mitogen-activated protein kinase kinase kinase kinase 5 (Homo sapiens, UniProt Q9Y4K4); format: functional;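 also: measured as one member of a kinome-spanning kinase panel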
[18] = molecular target: Vascular endothelial growth factor receptor 3 (Homo sapiens, UniProt P35916); format: functional;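 also: value from a kinome-wide profiling panel, with FLT4 as the panel member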
[19] = molecular target: Serine/threonine-protein kinase pim-2 (Homo sapiens, UniProt Q9P1W9); format: functional;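 also: value comes from a broad kinase panel profiling study in which PIM2 was one of the panel members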
[20] = molecular target: Vascular endothelial growth factor receptor 1 (Homo sapiens, UniProt P17948); format: functional;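 also: measured within a kinome-wide profiling panel, FLT1 as the panel member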
[21] = molecular target: Mitogen-activated protein kinase kinase kinase kinase 4 (Homo sapiens, UniProt O95819); format: functional
[22] = molecular target: Macrophage colony-stimulating factor 1 receptor (Homo sapiens, UniProt P07333); format: functional;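 also: value comes from the Navigating the Kinome screening panel, CSF1R member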
[23] = Fluorescence-based biochemical high throughput screening dose response assay to identify inhibitors of Crimean-Congo Hemorrhagic Fever (CCHF) viral ovarian tumor domain protease (vOTU): Pep-AMC substrate.
SUMO-activating enzyme = SUMO-activating enzyme (Homo sapiens, UniProt Q9UBT2); assay: blockers of UBC9-mediated SUMO conjugation – biochemical, AlphaScreen, SUMOylation inhibitor project, confirmation (AID 2018); format: functional
[24] = molecular target: T1, Replicative DNA helicase DnaB (Mycobacterium tuberculosis, UniProt P9WMR3); assay: DnaB intein splicing inhibitors, dose response, biochemical, cell-free fluorescence (AID 449749); format: functional
T1 sequence (P9WMR3 whole entry): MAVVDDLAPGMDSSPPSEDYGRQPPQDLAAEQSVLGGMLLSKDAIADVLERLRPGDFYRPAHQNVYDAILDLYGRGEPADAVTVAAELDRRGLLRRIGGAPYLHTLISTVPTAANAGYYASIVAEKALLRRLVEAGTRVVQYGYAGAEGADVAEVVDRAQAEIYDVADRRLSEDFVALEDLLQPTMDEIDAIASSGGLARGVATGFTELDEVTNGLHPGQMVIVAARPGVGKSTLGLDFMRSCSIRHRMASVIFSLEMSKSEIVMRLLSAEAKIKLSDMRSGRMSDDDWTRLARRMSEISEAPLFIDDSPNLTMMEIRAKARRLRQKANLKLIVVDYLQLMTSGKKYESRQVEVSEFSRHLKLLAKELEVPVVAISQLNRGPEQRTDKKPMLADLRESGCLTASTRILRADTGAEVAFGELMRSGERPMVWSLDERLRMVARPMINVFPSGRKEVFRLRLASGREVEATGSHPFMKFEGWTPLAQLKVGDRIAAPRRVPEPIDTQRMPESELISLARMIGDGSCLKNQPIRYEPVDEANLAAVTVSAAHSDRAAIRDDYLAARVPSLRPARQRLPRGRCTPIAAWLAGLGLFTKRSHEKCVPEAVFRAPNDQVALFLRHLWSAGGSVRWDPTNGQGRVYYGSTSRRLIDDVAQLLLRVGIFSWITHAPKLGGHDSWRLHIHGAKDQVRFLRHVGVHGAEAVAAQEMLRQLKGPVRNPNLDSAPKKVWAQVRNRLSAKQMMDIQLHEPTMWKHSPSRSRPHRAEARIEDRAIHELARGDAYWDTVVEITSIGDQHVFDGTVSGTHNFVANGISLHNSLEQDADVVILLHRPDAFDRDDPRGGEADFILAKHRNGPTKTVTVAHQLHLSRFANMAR

[25] = molecular target: Induced myeloid leukemia cell differentiation protein Mcl-1 (Homo sapiens, UniProt Q07820); format: functional
Caspase-7 = molecular target: T2, Caspase-7 (Homo sapiens, UniProt P55210); assay: activation of caspase-7 zymogen – biochemical, absorbance, counter-screen for procaspase-3 activator project, dose response (AID 489013)
T2 sequence (P55210 whole entry): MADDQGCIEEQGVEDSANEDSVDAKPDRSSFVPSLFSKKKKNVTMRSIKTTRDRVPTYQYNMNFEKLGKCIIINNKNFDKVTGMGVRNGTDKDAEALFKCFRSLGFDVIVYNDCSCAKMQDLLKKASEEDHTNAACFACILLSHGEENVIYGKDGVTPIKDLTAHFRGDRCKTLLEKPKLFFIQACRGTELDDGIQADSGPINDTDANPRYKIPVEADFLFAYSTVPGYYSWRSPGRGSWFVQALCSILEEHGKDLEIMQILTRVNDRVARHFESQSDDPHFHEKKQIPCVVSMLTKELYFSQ

[26] = NIH3T3 cell viability loss – ATP luminescence, mouse fibroblasts, counter-screen, dose response (AID 2010); format: functional, cell-based;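 also: cells exposed to compound for about 90 hours before reading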

Sequence of Glycogen synthase kinase-3 alpha (P49840 whole entry): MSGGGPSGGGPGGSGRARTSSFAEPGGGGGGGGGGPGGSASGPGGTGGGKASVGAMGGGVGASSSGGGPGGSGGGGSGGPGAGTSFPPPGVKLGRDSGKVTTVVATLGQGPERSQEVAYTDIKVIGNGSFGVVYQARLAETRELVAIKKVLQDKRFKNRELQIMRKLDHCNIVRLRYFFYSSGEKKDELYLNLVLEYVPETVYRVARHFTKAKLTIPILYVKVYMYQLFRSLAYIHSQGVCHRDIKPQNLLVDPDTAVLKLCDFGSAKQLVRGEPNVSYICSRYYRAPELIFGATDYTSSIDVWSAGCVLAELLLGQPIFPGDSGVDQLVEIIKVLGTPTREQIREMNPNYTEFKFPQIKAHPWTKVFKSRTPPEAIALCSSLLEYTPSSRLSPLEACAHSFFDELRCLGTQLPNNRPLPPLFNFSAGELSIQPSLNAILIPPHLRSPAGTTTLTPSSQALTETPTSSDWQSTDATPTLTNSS
Sequence of Phosphorylase b kinase gamma catalytic chain, liver/testis isoform (P15735 whole entry, canonical isoform): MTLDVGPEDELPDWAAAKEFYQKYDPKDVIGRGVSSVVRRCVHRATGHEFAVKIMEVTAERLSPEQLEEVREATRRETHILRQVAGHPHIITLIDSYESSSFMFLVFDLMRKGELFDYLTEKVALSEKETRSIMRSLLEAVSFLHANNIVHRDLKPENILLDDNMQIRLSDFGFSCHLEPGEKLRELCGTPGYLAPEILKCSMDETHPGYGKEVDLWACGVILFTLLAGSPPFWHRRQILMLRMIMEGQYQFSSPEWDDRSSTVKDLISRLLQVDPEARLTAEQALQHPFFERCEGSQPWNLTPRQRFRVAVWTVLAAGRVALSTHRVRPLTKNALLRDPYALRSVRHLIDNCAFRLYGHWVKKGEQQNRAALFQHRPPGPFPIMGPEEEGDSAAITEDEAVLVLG
Sequence of Vascular endothelial growth factor receptor 1 (P17948 whole entry): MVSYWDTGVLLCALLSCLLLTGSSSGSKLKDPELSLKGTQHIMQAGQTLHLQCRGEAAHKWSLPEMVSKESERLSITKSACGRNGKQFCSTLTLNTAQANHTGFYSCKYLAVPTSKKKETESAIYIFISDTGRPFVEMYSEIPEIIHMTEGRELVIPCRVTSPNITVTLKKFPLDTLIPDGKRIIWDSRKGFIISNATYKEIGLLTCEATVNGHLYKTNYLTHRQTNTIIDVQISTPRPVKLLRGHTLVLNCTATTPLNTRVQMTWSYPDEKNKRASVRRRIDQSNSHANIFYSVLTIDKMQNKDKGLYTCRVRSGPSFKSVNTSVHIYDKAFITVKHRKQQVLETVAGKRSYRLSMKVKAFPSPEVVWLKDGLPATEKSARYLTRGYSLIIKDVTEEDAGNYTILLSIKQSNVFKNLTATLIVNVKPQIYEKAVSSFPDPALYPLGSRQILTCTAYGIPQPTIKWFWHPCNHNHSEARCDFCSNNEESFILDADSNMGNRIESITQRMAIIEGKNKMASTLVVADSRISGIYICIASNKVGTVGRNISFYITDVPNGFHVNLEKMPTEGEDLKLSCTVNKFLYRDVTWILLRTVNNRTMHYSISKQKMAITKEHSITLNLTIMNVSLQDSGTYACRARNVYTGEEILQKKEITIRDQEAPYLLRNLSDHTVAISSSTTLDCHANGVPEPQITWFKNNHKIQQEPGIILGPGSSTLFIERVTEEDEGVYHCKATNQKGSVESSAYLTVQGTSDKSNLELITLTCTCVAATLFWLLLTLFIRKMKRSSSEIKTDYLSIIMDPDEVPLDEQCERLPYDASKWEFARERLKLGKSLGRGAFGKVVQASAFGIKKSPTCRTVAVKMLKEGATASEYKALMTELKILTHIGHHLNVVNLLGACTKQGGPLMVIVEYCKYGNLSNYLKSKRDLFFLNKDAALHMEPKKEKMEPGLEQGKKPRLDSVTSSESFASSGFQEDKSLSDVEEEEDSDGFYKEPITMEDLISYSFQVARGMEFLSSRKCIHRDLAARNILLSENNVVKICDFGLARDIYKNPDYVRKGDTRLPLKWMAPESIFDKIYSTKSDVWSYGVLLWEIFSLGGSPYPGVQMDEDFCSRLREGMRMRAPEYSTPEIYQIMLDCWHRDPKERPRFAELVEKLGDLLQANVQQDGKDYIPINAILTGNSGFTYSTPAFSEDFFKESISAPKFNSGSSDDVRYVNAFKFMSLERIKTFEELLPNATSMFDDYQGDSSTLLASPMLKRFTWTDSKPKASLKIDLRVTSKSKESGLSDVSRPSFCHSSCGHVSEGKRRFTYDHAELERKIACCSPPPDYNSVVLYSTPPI
Sequence of Maternal embryonic leucine zipper kinase (Q14680 whole entry): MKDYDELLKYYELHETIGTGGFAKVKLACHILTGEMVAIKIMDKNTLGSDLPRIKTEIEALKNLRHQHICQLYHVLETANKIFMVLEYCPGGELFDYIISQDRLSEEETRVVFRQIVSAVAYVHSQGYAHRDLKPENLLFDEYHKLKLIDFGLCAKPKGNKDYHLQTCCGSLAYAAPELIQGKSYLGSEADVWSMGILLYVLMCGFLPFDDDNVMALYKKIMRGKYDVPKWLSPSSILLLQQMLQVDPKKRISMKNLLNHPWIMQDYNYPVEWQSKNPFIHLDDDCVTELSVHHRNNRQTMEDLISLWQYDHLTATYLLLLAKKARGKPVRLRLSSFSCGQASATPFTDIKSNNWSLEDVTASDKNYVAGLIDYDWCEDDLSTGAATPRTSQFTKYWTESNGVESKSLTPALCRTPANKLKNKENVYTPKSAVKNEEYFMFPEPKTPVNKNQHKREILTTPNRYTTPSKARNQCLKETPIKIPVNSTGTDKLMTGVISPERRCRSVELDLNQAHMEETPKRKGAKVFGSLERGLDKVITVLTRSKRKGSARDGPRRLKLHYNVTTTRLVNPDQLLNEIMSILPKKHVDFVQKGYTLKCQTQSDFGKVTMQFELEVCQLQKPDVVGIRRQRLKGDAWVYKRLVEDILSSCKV
Sequence of Macrophage colony-stimulating factor 1 receptor (P07333 whole entry, the tested form may be a part): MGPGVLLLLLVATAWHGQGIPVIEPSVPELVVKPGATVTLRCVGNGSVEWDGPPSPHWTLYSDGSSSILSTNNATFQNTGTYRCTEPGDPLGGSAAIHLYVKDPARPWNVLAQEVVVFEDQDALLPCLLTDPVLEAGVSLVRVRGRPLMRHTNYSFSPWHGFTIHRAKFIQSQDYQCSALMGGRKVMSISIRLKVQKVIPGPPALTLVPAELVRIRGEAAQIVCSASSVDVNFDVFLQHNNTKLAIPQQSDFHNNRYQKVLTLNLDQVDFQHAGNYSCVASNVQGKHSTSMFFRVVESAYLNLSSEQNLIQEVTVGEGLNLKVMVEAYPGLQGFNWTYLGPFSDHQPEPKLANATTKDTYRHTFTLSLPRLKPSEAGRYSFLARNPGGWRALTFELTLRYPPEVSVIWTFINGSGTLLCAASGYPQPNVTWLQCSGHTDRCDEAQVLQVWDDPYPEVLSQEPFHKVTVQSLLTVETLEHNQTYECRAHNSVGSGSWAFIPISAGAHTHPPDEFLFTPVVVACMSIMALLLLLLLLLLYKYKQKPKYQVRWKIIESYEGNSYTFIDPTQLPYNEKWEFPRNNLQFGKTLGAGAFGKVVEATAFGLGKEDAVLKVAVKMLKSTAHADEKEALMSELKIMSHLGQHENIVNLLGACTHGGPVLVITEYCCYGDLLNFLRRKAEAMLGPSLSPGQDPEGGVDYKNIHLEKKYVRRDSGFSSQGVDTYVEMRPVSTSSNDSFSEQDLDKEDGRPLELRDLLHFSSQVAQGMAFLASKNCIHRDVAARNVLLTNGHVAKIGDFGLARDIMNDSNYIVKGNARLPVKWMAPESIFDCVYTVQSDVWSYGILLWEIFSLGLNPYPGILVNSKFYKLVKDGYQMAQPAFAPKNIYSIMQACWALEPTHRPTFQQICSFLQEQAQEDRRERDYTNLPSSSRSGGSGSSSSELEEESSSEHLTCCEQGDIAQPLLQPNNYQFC
Sequence of Mitogen-activated protein kinase 9 (P45984 whole entry): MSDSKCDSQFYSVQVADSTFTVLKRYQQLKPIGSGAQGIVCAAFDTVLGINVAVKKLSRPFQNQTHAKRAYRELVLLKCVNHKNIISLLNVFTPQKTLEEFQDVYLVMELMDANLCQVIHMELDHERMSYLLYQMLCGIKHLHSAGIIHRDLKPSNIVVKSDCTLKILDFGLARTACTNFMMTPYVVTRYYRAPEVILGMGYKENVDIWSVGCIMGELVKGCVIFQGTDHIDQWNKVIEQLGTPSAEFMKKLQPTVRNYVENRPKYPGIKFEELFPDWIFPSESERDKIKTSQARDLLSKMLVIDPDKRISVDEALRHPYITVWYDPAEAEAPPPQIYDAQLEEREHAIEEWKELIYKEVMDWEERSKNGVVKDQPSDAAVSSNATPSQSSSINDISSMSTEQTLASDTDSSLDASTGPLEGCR

Clc1cc(-c2c[nH]c3ncccc23)nc(NC2CCCCC2)n1
active: Ki [3] 501 nM | Ki [5] 126 nM | Ki [6] 3160 nM | Ki [7] 1260 nM | Ki [10] 1000 nM | Ki [12] 794 nM | Ki [13] 126 nM | Ki [15] 316 nM | Ki [18] 251 nM | Ki [20] 398 nM | Ki [21] 126 nM
inactive: Ki [1] > 5010 nM | Ki [2] > 3980 nM | Ki [4] > 1580 nM | Ki [8] > 7940 nM | Ki [9] > 2000 nM | Ki [11] > 2000 nM | Ki (Ephrin type-A receptor 2) > 3160 nM | Ki [14] > 5010 nM | Ki [16] > 7940 nM | Ki [17] > 2000 nM | Ki [19] > 2000 nM | Ki [22] > 1580 nM

CC(C)N(C(=O)Nc1ccc2nsnc2c1)C(C)C
active: IC50 [23] > 4250 nM

NS(=O)(=O)c1ccc(NC2=CC(=O)C(=O)c3ccccc32)cc1
active: IC50 (SUMO-activating enzyme) 2110 nM | AC50 [24] 1840 nM

O=C(N/N=C/c1ccc(O)cc1O)c1ccc(CN2C(=O)c3cccc4cccc2c34)cc1
inactive: EC50 (Caspase-7) > 85300 nM
active: IC50 [25] 1470 nM

CCC(=O)NC(c1ccccc1OC)c1ccc2cccnc2c1O (centres undefined)
active: EC50 [26] 1670 nM
